Experimental data taken from patent US20130210057A1, “USE OF LABEL-FREE BIOSENSORS TO UNDERSTAND AND IDENTIFY TREATMENT FOR CANCER” (CORNING INCORPORATED, priority 2012, published 2013).
Ends that are not written are not given here.

What was measured:
Type in all cases: cell-based, human
HCT116 parental cells = assay: Calcium flux assay (FLUO-4, FDSS/FLIPR); settings: small molecule agonists 10 micromolar, peptide and lipid agonists 1 micromolar
Text: (§1) To screen endogenous receptors and their coupled signaling pathways, we first assembled a GPCR agonist focused library (Table 1). The library consists of 120 GPCR agonists covering over 150 known GPCRs, based on their known pharmacology including polypharmacology. For small molecule chemical agonists, the dose used was 10 micromolar. For peptide agonists, the dose used was 1 micromolar. For lipid agonists, the dose used was also 1 micromolar. For both peptides and lipids, these agonists were suspended in a solution containing 0.05% bovine […] to increase their stability.

HCT116 PTEN null cells = assay: Calcium flux assay (FLUO-4, FDSS/FLIPR); settings: small molecule agonists 10 micromolar, peptide and lipid agonists 1 micromolar
Text: as §1

[1] = test system: HCT116-PTEN Null cell line; assay: Label-free RWG biosensor DMR assay
Text: (§2) EPIC® beta version wavelength interrogation system (Corning Inc., NY) was used for whole cell sensing. This system consists of a temperature-control unit, an optical detection unit, and an on-board liquid handling unit with robotics. The detection unit is centered on integrated fiber optics, and enables kinetic measures of cellular responses with a time interval of ˜15 sec. Also EPIC® commercial systems were used, with a liquid handler accessory attached to EPIC® reader system. Also, an Epic® RWG imager can be used.
(§3) The resonant waveguide grating (RWG) biosensor is capable of detecting minute changes in local index of refraction near the sensor surface and the waveguide thin film having gratings provide a cell culture surface. Since the local index of refraction within a cell is a function of density and its distribution of biomass (e.g., proteins, molecular complexes), the biosensor exploits its evanescent wave to non-invasively detect ligand-induced Dynamic Mass Redistribution (DMR) in native cells. When a cell is stimulated, it responds. That response is a redistribution of biomass in the cell. Upon stimulation, proteins, protein complexes, and/or organelles in the cells move. The evanescent wave extends into the cells and exponentially decays over distance, leading to a characteristic sensing depth of ˜150 nm. Any optical response mediated through receptor activation only represents an average over the portion of the cell that the evanescent wave is sampling. The aggregation of many cellular events downstream to the receptor activation leads to a DMR signal having characteristic kinetics and amplitudes.
(§4) All assays were carried out at a controlled temperature (28° C.). At least two independent sets of experiments, each with at least three replicates, were performed.

[2] = test system: HCT116 parental cell line; assay: Label-free RWG biosensor DMR assay; settings: HCT116 parental
Text: as §2, §3, §4

[3] = test system: Akt, ERK1/2, EGFR, c-Src, STAT3 phosphorylation in HCT116 parental cells; assay: Western blot analysis of key signaling proteins in GPCR signaling; settings: serum-starved, 5 min treatment; for Akt activation (phospho-Akt): SFLLR, SLIGKV 1 μM, S1P, LPA 2.5 μM
[4] = test system: Akt, ERK1/2, EGFR, c-Src, STAT3 phosphorylation in PTEN null cells; assay: as above; settings: serum-starved, 5 min treatment; for Akt activation (phospho-Akt): SFLLR, SLIGKV 1 μM, S1P, LPA 2.5 μM

Row | Molecule | Ca^2+ mobilization (fold increase in fluorescence, FLIPR) (HCT116 parental cells) | Ca^2+ mobilization (fold increase in fluorescence, FLIPR) (HCT116 PTEN null cells) | agonist DMR in PTEN deleted cell line compared to parental cell line (sensitivity to PTEN deletion) ([1]; 10 μM agonist (EGF, IGF1 1 μM)) | receptor / signaling pathway activated (pathway deconvolution of DMR with toxins) ([1]; HCT116-PTEN Null, 10 μM agonist) | receptor / signaling pathway activated (pathway deconvolution of DMR with toxins) ([2]; 10 μM agonist) | Akt activation (phospho-Akt) [3] | EGFR activation [4] | Akt activation (phospho-Akt) [4] | level of phosphorylated STAT3 [3] | level of phosphorylated STAT3 [4] | agonist-induced DMR signal ([1]; HCT116-PTEN Null, untreated, 10 μM agonist (EGF, IGF1 1 μM)) | potency to trigger DMR, PTEN null vs parental ([1]; dose response, early P-DMR or late P-DMR (50 min poststimulation) amplitudes) | efficacy to trigger DMR, PTEN null vs parental ([1]; dose response, early or late P-DMR event) | agonist-induced DMR signal ([2]; untreated, 10 μM agonist (EGF, IGF1 1 μM))
1 | Nc1ncnc2c1ncn2[C@@H]1O[C@H](COP(=O)(O)OP(=O)(O)OP(=O)(O)O)[C@@H](O)[C@H]1O [ATP] | robust Ca^2+ mobilization | robust Ca^2+ mobilization | dramatically different | activates multiple GPCRs and mediates signaling via multiple G proteins | activates multiple GPCRs and mediates signaling via multiple G proteins |  |  |  |  |  |  |  |  | 
2 | CCCCCCCCCCCCC/C=C/[C@@H](O)[C@@H](N)COP(=O)(O)O [S1P, sphingosine-1-phosphate] |  |  |  |  |  | did not activate | did not activate | did not activate |  |  |  |  |  | 
3 | SFLLR-amide | robust Ca^2+ mobilization | robust Ca^2+ mobilization | distinct characteristics |  |  | did not activate |  | did not activate | significantly increased | significantly increased | robust DMR signal | almost identical | higher efficacy | robust DMR signal
4 | SLIGKV-NH2 | robust Ca^2+ mobilization | robust Ca^2+ mobilization |  |  |  | did not activate |  | did not activate |  |  |  |  |  | 
